Results from ChEMBL document CHEMBL5537176, “Discovery of Novel Pyridazine-Tethered Sulfonamides as Carbonic Anhydrase II Inhibitors for the Management of Glaucoma” (J Med Chem, 2024).
pKi: −log10 of the molar value.

Target: Carbonic anhydrase 9 (Homo sapiens, UniProt Q16790)
Assay: Inhibition of human CA IX assessed as inhibition constant by stopped-flow CO2 hydrase assay method

pKi: 8.49
Structure (SMILES): COc1cc2c(cc1OC)-c1c(c(C(=O)Nc3ccc(S(N)(=O)=O)cc3)nn1C)C2
